According to ChEMBL document CHEMBL1641409, “Synthesis and SAR study of new phenylimidazole-pyrazolo[1,5-c]quinazolines as potent phosphodiesterase 10A inhibitors” (Bioorg Med Chem, 2011):

Experiments:
[1] = molecular target: cAMP and cAMP-inhibited cGMP 3',5'-cyclic phosphodiesterase 10A (Homo sapiens, UniProt Q9Y233); experiment: Inhibition of human PDE10A expressed in Sf9 cells using [3H]cAMP by scintillation proximity assay
[2] = molecular target: cGMP-specific 3',5'-cyclic phosphodiesterase (Homo sapiens, UniProt O76074); experiment: Inhibition of PDE5A
[3] = molecular target: cGMP-inhibited 3',5'-cyclic phosphodiesterase 3A (Homo sapiens, UniProt Q14432); experiment: Inhibition of PDE3A
[4] = molecular target: 3',5'-cyclic-AMP phosphodiesterase 4D (Homo sapiens, UniProt Q08499); experiment: Inhibition of PDE4D6
[5] = molecular target: 3',5'-cyclic-AMP phosphodiesterase 7B (Homo sapiens, UniProt Q9NP56); experiment: Inhibition of PDE7B
[6] = molecular target: Dual specificity calcium/calmodulin-dependent 3',5'-cyclic nucleotide phosphodiesterase 1B (Homo sapiens, UniProt Q01064); experiment: Inhibition of PDE1B
Brain [7] = experiment: Drug level in mouse brain measured per gram of tissue at 2 mg/kg, po; assay type: ADME, organism-based; design: dose 2 mg/kg, route oral; conditions: in vivo
[8] = Ratio of drug level in brain to plasma in mouse at 2 mg/kg, po; assay type: ADME, organism-based; design: dose 2 mg/kg, route oral; conditions: read-out: BPR
Plasma [9] = experiment: Drug level in mouse plasma at 2 mg/kg, po; assay type: ADME, organism-based; design: dose 2 mg/kg, route oral; conditions: in vivo
Plasma [10] = experiment: Drug level in mouse plasma at 5 mg/kg, sc; assay type: ADME, organism-based; design: dose 5 mg/kg, route subcutaneous; conditions: in vivo
[11] = Ratio of drug level in brain to plasma in mouse at 5 mg/kg, sc; assay type: ADME, organism-based; design: dose 5 mg/kg, route subcutaneous; conditions: read-out: BPR
Brain [12] = experiment: Drug level in mouse brain measured per gram of tissue at 5 mg/kg, sc; assay type: ADME, organism-based; design: dose 5 mg/kg, route subcutaneous; conditions: in vivo

Chain of cAMP and cAMP-inhibited cGMP 3',5'-cyclic phosphodiesterase 10A (Q9Y233 whole entry): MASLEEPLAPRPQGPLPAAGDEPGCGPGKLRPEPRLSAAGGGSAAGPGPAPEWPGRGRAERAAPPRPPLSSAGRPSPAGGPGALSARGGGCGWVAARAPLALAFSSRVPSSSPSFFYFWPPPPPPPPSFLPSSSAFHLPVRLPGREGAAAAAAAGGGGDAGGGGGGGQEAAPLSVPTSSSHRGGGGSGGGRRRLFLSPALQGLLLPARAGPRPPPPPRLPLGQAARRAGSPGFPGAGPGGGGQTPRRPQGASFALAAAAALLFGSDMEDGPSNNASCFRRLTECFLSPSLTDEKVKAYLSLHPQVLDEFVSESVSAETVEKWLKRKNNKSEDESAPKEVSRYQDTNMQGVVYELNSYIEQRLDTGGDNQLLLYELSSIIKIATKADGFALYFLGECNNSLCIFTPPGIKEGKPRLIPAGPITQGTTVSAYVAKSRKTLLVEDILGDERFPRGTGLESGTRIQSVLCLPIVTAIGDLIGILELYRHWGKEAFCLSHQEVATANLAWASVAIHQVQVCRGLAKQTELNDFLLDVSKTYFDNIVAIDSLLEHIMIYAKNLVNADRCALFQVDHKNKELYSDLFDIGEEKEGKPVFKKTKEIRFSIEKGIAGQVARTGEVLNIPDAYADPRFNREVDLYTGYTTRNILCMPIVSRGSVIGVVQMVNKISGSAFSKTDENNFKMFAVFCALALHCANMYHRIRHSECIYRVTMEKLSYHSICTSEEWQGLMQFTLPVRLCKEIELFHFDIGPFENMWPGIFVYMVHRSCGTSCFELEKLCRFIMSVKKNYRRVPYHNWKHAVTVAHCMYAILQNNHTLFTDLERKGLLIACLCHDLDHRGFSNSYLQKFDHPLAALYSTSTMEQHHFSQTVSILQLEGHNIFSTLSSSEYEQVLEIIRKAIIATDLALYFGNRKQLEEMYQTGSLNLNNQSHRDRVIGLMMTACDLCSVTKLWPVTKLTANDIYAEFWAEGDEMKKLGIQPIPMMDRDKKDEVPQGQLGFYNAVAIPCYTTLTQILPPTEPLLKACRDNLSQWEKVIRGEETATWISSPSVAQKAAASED
Chain of 3',5'-cyclic-AMP phosphodiesterase 7B (Q9NP56 whole entry): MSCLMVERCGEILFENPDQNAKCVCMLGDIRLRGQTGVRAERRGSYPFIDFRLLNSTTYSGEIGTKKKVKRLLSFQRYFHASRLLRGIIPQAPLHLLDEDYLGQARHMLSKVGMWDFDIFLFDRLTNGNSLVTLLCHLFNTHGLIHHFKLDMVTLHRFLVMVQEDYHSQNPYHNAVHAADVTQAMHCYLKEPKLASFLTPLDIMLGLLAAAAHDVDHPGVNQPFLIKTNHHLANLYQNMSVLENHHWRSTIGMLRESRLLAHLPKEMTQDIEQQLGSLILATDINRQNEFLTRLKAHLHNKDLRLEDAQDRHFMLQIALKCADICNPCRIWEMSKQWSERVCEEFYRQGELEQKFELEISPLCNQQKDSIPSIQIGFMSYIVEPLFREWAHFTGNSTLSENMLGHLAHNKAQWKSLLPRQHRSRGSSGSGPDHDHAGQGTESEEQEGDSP
Chain of cGMP-inhibited 3',5'-cyclic phosphodiesterase 3A (Q14432 whole entry): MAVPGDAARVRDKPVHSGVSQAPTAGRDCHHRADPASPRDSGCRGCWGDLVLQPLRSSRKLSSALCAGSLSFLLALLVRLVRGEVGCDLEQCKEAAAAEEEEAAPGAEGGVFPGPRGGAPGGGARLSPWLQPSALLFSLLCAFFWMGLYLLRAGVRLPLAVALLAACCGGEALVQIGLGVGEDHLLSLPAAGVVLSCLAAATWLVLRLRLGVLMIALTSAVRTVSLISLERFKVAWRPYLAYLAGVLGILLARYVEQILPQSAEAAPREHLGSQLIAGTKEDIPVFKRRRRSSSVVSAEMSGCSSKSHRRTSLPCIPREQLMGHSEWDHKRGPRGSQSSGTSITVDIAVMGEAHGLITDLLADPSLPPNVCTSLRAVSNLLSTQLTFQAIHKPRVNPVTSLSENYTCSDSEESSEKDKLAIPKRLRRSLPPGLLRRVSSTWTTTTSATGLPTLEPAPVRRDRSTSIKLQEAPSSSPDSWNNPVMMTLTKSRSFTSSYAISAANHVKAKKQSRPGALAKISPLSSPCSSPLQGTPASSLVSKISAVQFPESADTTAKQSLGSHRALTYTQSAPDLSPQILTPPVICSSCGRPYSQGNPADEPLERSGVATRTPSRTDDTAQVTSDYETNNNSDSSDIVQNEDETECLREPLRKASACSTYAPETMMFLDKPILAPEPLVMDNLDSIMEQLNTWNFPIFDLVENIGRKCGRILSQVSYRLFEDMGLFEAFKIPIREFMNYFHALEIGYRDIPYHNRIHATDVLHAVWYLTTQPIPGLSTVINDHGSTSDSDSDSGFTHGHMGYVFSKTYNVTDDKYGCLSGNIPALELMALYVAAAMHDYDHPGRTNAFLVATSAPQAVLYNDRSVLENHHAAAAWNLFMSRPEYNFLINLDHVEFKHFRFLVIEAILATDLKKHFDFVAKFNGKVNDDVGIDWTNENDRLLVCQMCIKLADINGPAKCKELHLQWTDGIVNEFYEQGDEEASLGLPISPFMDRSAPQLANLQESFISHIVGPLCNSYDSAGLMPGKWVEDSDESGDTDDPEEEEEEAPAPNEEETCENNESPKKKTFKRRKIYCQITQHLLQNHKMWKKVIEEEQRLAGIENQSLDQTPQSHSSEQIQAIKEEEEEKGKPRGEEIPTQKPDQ
Chain of Dual specificity calcium/calmodulin-dependent 3',5'-cyclic nucleotide phosphodiesterase 1B (Q01064 whole entry): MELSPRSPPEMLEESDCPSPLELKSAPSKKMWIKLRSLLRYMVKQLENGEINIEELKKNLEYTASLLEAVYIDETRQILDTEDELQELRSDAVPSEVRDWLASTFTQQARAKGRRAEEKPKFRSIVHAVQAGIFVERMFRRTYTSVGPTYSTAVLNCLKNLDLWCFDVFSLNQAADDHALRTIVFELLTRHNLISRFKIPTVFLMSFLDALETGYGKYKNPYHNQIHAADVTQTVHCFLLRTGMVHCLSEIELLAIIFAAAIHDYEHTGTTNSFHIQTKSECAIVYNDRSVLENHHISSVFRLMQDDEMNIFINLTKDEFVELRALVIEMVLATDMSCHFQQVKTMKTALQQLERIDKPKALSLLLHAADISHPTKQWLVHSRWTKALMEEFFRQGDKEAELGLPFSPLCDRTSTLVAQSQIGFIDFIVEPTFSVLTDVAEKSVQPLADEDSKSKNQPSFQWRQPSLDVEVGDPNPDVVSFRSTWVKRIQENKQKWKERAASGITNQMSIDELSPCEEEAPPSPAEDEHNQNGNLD
Chain of 3',5'-cyclic-AMP phosphodiesterase 4D (Q08499 whole entry): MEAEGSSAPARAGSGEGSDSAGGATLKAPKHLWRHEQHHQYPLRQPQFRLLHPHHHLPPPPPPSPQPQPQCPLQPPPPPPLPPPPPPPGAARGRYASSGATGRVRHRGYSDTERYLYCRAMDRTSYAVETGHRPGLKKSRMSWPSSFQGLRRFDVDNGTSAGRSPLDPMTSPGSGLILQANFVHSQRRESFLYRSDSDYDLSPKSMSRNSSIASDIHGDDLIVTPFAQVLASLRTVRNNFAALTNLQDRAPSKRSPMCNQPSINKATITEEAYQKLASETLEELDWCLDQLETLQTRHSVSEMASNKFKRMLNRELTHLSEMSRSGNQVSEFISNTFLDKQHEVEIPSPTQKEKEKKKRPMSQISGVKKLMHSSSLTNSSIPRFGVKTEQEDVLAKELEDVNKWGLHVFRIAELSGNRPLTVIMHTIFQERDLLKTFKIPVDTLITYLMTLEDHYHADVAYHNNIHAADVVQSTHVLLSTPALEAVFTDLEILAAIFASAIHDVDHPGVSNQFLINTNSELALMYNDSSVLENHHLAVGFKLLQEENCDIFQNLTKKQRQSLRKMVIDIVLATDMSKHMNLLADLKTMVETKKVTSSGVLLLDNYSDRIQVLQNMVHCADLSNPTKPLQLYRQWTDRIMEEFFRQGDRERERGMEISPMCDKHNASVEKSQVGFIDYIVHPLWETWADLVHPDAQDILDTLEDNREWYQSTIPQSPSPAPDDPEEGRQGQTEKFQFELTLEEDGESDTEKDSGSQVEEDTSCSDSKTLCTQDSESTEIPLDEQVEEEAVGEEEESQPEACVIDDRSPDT

Row | SMILES | IC50 [1] | also measured
1 | Cc1cc2c3ccc(Cl)cc3nc(CSc3nc(-c4ccccc4)cn3C)n2n1 | 130 nM | 
2 | Cc1cc2c3cccc(C)c3nc(CSc3nc(-c4ccccc4)cn3C)n2n1 | 160 nM | 
3 | COc1ccc2c(c1)nc(CSc1nc(-c3ccccc3)cn1C)n1nc(C)cc21 | 100 nM | 
4 | COc1ccc2c(c1)nc(CCc1nc(-c3ccccc3)cn1C)n1nc(C)cc21 | 31 nM | 
5 | Cc1cc2c3cccc(Cl)c3nc(CCc3nc(-c4ccccc4)cn3C)n2n1 | 52 nM | 
6 | Cc1cc2c3ccccc3nc(CSc3nc(-c4ccccc4)cn3C)n2n1 | 48 nM | 
7 | Cc1cc2c3cccc(C)c3nc(CCc3nc(-c4ccccc4)cn3C)n2n1 | 78 nM | 
8 | Cc1ccc2nc(CCc3nc(-c4ccccc4)cn3C)n3nc(C)cc3c2c1 | 16 nM | IC50 [2]: 10000 nM; IC50 [3]: 10000 nM; IC50 [4]: 10000 nM; IC50 [5]: 10000 nM; IC50 [6]: 10000 nM
9 | COc1cccc2c1nc(CCc1nc(-c3ccccc3)cn1C)n1nc(C)cc21 | 37 nM | 
10 | Cc1cc2c3cccc(Cl)c3nc(CSc3nc(-c4ccccc4)cn3C)n2n1 | 73 nM | 
11 | Cc1nc2c3ccccc3nc(SCc3nc4ccccc4[nH]3)n2n1 |  | IC50 [2]: 10000 nM; IC50 [3]: 10000 nM; Drug uptake (Brain [7]): < 25 ng/mL; IC50 [4]: 10000 nM; IC50 [5]: 10000 nM; Kp [8]: < 0.04; IC50 [6]: 10000 nM; Drug uptake (Plasma [9]): 629 ng/mL
12 | Cc1cc2c3ccccc3nc(CCc3nc(-c4ccccc4)cn3C)n2n1 | 50 nM | Drug uptake (Plasma [10]): 150 ng/mL; Kp [11]: 0.65; Drug uptake (Brain [12]): 98 ng/mL
13 | Cc1cc2c3cc(Cl)ccc3nc(CSc3nc(-c4ccccc4)cn3C)n2n1 | 110 nM | 
14 | Cc1cc2c3ccc(Cl)cc3nc(CCc3nc(-c4ccccc4)cn3C)n2n1 | 50 nM | 
15 | COc1cccc2c1nc(CSc1nc(-c3ccccc3)cn1C)n1nc(C)cc21 | 83 nM | 
16 | Cc1cc2c3cc(Cl)ccc3nc(CCc3nc(-c4ccccc4)cn3C)n2n1 | 16 nM | 
17 | Cc1ccc2nc(CSc3nc(-c4ccccc4)cn3C)n3nc(C)cc3c2c1 | 76 nM | 
18 | COc1ccc2nc(CCc3nc(-c4ccccc4)cn3C)n3nc(C)cc3c2c1 | 430 nM | 
